According to US8173668B1 (Alcon Research, Ltd., priority 2007, dated 2012):

Assays:
[1] = target: T1, B2-receptors in h-TM cells (Homo sapiens, UniProt P30411); experiment: [Ca2+]i mobilization (FLIPR) in h-TM cells, agonist mode; type: cell-based; settings: h-TM cells, mean ± SEM
T1 construct: B2-receptor proteins in h-TM, h-CM and h-NPE cells; endogenous in cells; host or cells: human trabecular meshwork (h-TM), human ciliary muscle (h-CM) and human non-pigmented ciliary epithelial (h-NPE) cells
T1 sequence (P30411 1-391): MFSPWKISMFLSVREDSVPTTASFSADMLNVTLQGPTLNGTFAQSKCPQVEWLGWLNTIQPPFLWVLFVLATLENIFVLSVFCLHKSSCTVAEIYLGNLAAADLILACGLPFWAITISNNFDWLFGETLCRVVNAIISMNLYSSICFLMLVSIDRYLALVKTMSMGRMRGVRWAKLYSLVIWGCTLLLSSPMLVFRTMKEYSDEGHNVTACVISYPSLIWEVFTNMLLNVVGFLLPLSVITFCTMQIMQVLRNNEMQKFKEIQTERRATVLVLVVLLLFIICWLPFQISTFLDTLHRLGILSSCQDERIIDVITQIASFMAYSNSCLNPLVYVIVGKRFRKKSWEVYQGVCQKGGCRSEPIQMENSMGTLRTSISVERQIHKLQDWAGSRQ
Procedure: On the day of the experiment, one vial of FLIPR Calcium Assay Kit dye is re-suspended in 50 mL of a FLIPR buffer consisting of Hank's Balanced Salt Solution (HBSS), 20 mM HEPES, and 2.5 mM probenecid, pH 7.4. Cells are loaded with the calcium-sensitive dye by addition of an equal volume (50 μL) to each well of the 96-well plate and incubated with dye for 1 h at 23° C. After this time, the test compound plate and cell plate are placed in the FLIPR instrument. At the beginning of an experimental run, a signal test is performed to check the basal fluorescence signal from the dye-loaded cells and the uniformity of the signal across the plate. The basal fluorescence is adjusted between 8000-12000 counts by modifying the exposure time, the camera F-stop, or the laser power. Instrument settings for a typical assay are the following: laser power 0.3-0.6 W, camera F-stop F/2, and exposure time 0.4 sec.
Fluorescence data are collected in real-time at 1.0 sec intervals for the first 60 secs and at 6.0 sec intervals for an additional 120 secs. […] The data are then analyzed using an automated, iterative, sigmoidal curve-fitting computer program to obtain the potency and intrinsic activities of the test agents as previously described (Sharif et al. J. Pharmacol. Exp. Ther. 286: 1094-1102, 1998; Sharif et al. Invest. Ophthalmol. Vis. Sci. 39:2562-2571, 1998; Kelly et al. J. Pharmacol. Exp. Ther. 304: 238-245, 2003). The sources of materials and reagents for such assays can be found in the references cited above.

[2] = test system: h-NPE cells; experiment: Prostaglandin production in h-NPE cells; type: cell-based, human; settings: 1-10 μM
Procedure: A functional assay to discover BK agonists may involve the measurement of prostaglandin E2 (PGE2) production (Wiernas et al. Brit. J. Pharmacol. 123: 1127-1137, 1998), for instance, in cells isolated from human or animal ocular or non-ocular tissues, or cells expressing recombinant (preferably human) BK receptors. Cells expressing BK receptors are seeded in 48-wells culture plates and allowed to reach confluence. After this time the cells are rinsed twice with 0.5 mL of phosphate buffered saline and incubated with the test agent made up in 0.5 mL Dulbeco's modified Eagle's medium (DMEM)/F-12 for 1 h at 37° C. […]
After this incubation, all tubes are placed in an ice-bath and 1 ml cold precipitating reagent supplied in the kit is added to the tubes, the content mixed and incubated for 25 min at 4° C. […] The supernatants of all tubes are decanted as specified in the kit instructions and the RIA samples analyzed on a gamma-counter. The levels of PGE2 generated by the test agent are then quantified in comparison with the PGE2-standard curve. Dose-response data for the test agent are constructed and the potency and intrinsic activity determined as described above for other assays. […]

Emax ([1]; HTM, read-out: Intrinsic Activity (Emax, % max relative to BK)): 86%
EC50 ([1]; read-out: Potency (EC50), [Ca2+]i mobilization): 167 ± 29 nM
Compound: CNC(=O)c1ccc(/C=C/C(=O)NCC(=O)N(C)c2ccc(Cl)c(COc3cccc4c(OCc5ccccn5)cc(C)nc34)c2Cl)cc1 [FR-190997]
production of prostaglandins [2]: 1.26 fold above basal
